Where two headings read alike, the source gives them in different places.

Experiment [1] has as its system whitetop (Cardaria draba) seeds. Briefly: Protocol 1 clean seed dip treatment and germination test, whitetop. The class given is in vivo. The conditions noted are these: non-soil environment. As for the experimental part: (§1) All seeds for a Protocol 1 Test were removed from the flower parts and used as clean seeds. A treatment consisted of 100 seeds with four replications for a total of at least 400 seeds per treatment. In some cases extra seeds were treated to accommodate additional germination tests, if needed. In lots of 100, seeds were first rinsed with water to simulate a wash treatment. These pre-wetted seeds were then dipped for one minute in one of the Treatment Rinse percent solutions per volume as show below. Three quality glyphosate products were used. […] The inert ingredients typically comprise tallow amine, lecithin, algaecide and purified water. […] The surfactants added to the percent solution were a penetrator, comprising methylated seed oil, and a spreader, comprising polyether-polymethylsiloxane-copolymer polyether or silicone polyether copolymer.
(§2) Seeds were stirred during the dip to assure all seeds were exposed to the solution. Treated seeds were allowed to air dry with the time to dry recorded. Three main seed types were used in the Protocol 1 Test: whitetop (Cardaria draba), spotted knapweed (Centauria maculosa), and diffuse knapweed (Centauria. diffusa). Two additional seed types were used for one treatment each, Russian thistle (Salsola tragus) and Scotch thistle (Onopordum acanthium).
(§3) When seeds were thoroughly dry after treatment they were packaged and sent for germination testing. […]

Experiment [2] relates to spotted knapweed (Centauria maculosa) seeds. Briefly: Protocol 1 clean seed dip treatment and germination test, spotted knapweed. The class given is in vivo. The conditions noted are these: non-soil environment. The method, then:
as §1, §2, §3

The subject of experiment [3] is diffuse knapweed (Centauria. diffusa) seeds. Briefly: Protocol 1 clean seed dip treatment and germination test, diffuse knapweed. The conditions noted are these: non-soil environment. Type of experiment: in vivo. The method, then: as §1, §2, §3
In experiment [4] the test system is Russian thistle (Salsola tragus) seeds. Briefly: Protocol 1 clean seed dip treatment and germination test, Russian thistle. Type of experiment: in vivo. The conditions noted are these: non-soil environment. The method, then:
as §1, §2, §3

The test system of experiment [5] is Scotch thistle (Onopordum acanthium) seeds. Briefly: Protocol 1 clean seed treatment, germination test in soil environment, Scotch thistle. Type of experiment: in vivo. The method, then:
as §1, §2, §3

The test system is the same in experiment [6]. The conditions noted are these: soil application of glyphosate; cited from earlier work.

Consider `O=C(O)CNCP(=O)(O)O` [glyphosate], for which the “control, considering treated seeds that may grow to reproductive maturity” value is recorded as 95% in experiment [1]; 100% in experiment [2]; 99% in experiment [3]; 72% in experiment [4]; 100% in experiment [5] (Scotch thistle, non-soil environment). In addition, the “control of Scotch thistle” value is “controlled” in experiment [5] (direct application of glyphosate to the seed, then placed in soil to germinate) and “not controlled” in experiment [6].

Source of the values: patent publication US9084395B2, “Method to arrest growth of invasive species' seeds while in non-natural environment prior to transport” (priority 2012, dated 2015).
